The test system of the test is mice. Kind of test: Analgesia, thermal radiation (tail flick) test on mice, intravenous. The format is in vivo, mice (male NMRI). The conditions noted are these: Mus musculus, 20 min, determined at effective maximum 20 minutes after administration, effect = latency ≥150% of pre-test average. From the text: Testing for analgesia using the tail flick test on mice
The analgesic effectiveness of the compounds according to the invention was investigated in the thermal radiation (tail flick) test on mice using the method of D'Amour and Smith (J. Pharm. Exp. Ther. 72, 74-79 (1941). Male NMRI mice with a weight between 20 and 24 g were used for this purpose. The animals were placed individually in special test cages and the bases of their tails were exposed to the focused thermal radiation from an electric lamp (Rhema Analgesiemeter Type 3010). The lamp intensity was adjusted so that the time from switching on the lamp until the sudden twitching away of the tail (latency of pain) was 3-5 seconds for untreated animals. Before the administration of a compound according to the invention, the animals were pre-tested twice within five minutes and the average value of these measurements was calculated as the pre-test average. The pain measurement was made 20, 40 and 60 minutes after intravenous administration. When the latency of pain increased, the maximum time of exposure was restricted to 12 seconds and an increase in the latent period to ≥150% of the pre-test average value was assessed as an analgesic effect. In order to determine the dosage-dependency, the respective compound according to the invention was applied in doses increasing logarithmically by a factor of 3-5, which included the threshold and the maximum effective dose each time. The ED50 values were determined from the number of analgesic animals by the method of Litchfield and Wilcoxon (J. Pharm. Exp. Ther. 96, […], (1949)). Determination of the ED50 was made at the effective maximum 20 minutes after intravenous administration of the substance.

The structures appear in SMILES notation. Counter-ions that a name gives are not always drawn.

In general, ED50 refers to the midpoint of the dose-response relation. Higher therefore signals a need for a large dose. `COc1cccc([C@@]2(O)CC[C@H](Cc3ccccc3)C[C@@H]2CN(C)C)c1.Cl` (racemic) [(35), (1RS,2RS,4SR)-4-benzyl-2-dimethylaminomethyl-1-(3-methoxy-phenyl)-cyclohexanol hydrochloride] yielded an ED50 of 2.43 mg/kg.

With `CN(C)C[C@H]1C[C@@H](OCC2CCCC2)CC[C@]1(O)c1cccc(OC2CCCC2)c1.Cl` (racemic) [(60), (1RS,2RS,4SR)-4-cyclopentylmethoxy-1-(3-cyclopentyl-oxy-phenyl)-2-dimethylaminomethyl-cyclohexanol hydrochloride], the 50% effect level (ED50) was put at a dose of 2.46 mg/kg. In turn, `C=C(C)CO[C@H]1CC[C@](O)(c2cccc(OC)c2)[C@@H](CN(C)C)C1` (relative stereo) [(14), (1RS,2RS,4SR)-2-dimethylaminomethyl-1-(3-methoxy-phenyl)-4-(2-methyl-2-allyloxy)-cyclohexanol hydrochloride] gave an ED50 of 0.379 mg/kg. Molecule `CN(C)C[C@H]1C[C@@H](CCC2CCCC2)CC[C@]1(O)c1cccc(OC2CCCC2)c1` [(71), hydrochloride] came in with an ED50 of 3.35 mg/kg. Consider `CN(C)C[C@H]1C[C@@H](OCc2ccccc2)CC[C@]1(O)c1cccc(O)c1.Cl` [(85), (+)-(1R, 2R, 4S)-3-(4-benzyloxy-2-dimethylaminomethyl-1-hydroxycyclohexyl)-phenol hydrochloride], for which the ED50 was 0.068 mg/kg.

As to `COc1cccc([C@@]2(O)CC[C@H](OCc3ccc(Cl)cc3)C[C@@H]2CN(C)C)c1.Cl` [(93), (+)-(1R, 2R, 4S)-4-(4-chloro-benzyloxy)-2-dimethylaminomethyl-1-(3-methoxyphenyl)-cyclohexanol hydrochloride], the ED50 came out at 0.37 mg/kg. `COc1cccc([C@@]2(O)CC[C@H](OCc3ccccc3)C[C@@H]2CN(C)C)c1.Cl` [[(+)1], (1R,2R,4S)-4-benzyloxy-2-dimethylaminomethyl-1-(3-methoxy-phenyl)-cyclohexanol hydrochloride] yielded an ED50 of 0.049 mg/kg. For `CSc1cccc([C@@]2(O)CC[C@H](OCc3ccccc3)C[C@@H]2CN(C)C)c1` [[(+)6], (1R,2R,4S)-4-benzyloxy-2-[(dimethylamino)methyl]-1-(3-methyl-sulphanyl-phenyl)-cyclohexanol hydrochloride], it took a dose of 0.19 mg/kg to reach the 50% effect level (ED50). To `COc1cccc([C@]2(O)CC[C@@H](OCc3ccccc3)C[C@H]2CN(C)C)c1.Cl` [[(-)1], (1S,2S,4R)-4-benzyloxy-2-dimethylaminomethyl-1-(3-methoxy-phenyl)-cyclohexanol hydrochloride] belongs 0.822 mg/kg.

For the origin of these results see US5801201A, “1-phenyl-2-dimenthylaminomethyl-cyclohexan-1-ol compounds as pharmaceutical active ingredients” (priority 1995, dated 1998).
